Data reported in patent US8563551B2, “Method for preventing or treating a disease related to the glucocorticoid receptor” (Santen Pharmaceutical Co., Ltd., priority 2006, dated 2013).

biological target: T1, Recombinant human GR (Homo sapiens, UniProt P04150); experiment: GR competitor assay (receptor competitor assay by fluorescence polarization, Invitrogen kit P2816); details: 20 μM test compound solution (10 μL per well plus 5 μL 4×GS1 and 5 μL 4×GR); relative to 2 mM dexamethasone positive control; ratios of 100% or more are indicated by 100%; read-out: GR Binding ratio (%)
T1 construct: purchased Invitrogen P2816
T1 sequence (P04150 1-777): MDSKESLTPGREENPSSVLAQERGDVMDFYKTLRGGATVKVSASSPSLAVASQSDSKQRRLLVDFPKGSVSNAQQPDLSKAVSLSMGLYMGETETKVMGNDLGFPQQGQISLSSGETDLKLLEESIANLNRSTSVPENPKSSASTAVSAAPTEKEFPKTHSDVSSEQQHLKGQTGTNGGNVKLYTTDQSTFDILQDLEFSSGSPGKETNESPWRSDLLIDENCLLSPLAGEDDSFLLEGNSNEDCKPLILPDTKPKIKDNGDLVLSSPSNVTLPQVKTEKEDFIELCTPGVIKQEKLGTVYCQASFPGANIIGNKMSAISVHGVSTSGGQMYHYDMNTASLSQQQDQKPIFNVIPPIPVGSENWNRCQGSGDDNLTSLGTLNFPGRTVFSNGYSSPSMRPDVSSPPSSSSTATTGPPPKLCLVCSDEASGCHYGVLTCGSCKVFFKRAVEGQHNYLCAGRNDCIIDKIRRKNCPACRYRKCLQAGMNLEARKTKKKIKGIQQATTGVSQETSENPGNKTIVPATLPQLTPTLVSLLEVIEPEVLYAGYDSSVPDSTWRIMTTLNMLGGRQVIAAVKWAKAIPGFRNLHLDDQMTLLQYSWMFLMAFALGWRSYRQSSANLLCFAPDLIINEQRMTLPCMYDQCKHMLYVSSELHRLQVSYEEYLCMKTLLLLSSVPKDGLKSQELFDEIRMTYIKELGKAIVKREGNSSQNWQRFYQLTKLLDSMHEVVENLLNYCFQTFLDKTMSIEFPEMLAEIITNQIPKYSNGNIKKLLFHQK
Procedure: In order to evaluate a binding activity to GR, a receptor competitor assay was carried out by a fluorescence polarization method. In the assay, a GR competitor assay kit (manufactured by Invitrogen, cat No. P2816) was used, and a procedure was carried out according to the protocol attached to the kit. Hereinafter, the specific method will be described.
GR screening buffer: A buffer containing 10 mM potassium phosphate (pH 7.4), 20 mM sodium molybdate (Na2MoO4), 0.1 mM ethylene diamine tetraacetic acid (EDTA), 5 mM dithiothreitol (DTT), 0.1 mM stabilizing peptide and 2% dimethylsulfoxide was prepared.
4×GS1 solution: Fluormone™ GS1, which is a fluorescent glucocorticoid ligand, was diluted with GR screening buffer, whereby a 4 nM solution was prepared.
4×GR solution: Recombinant human GR was diluted with GR screening buffer, whereby a 16 nM solution was prepared.
After a test compound was dissolved in dimethylsulfoxide, the resulting solution was diluted with GR screening buffer, whereby a 20 μM test compound solution was prepared.
1) The test compound solution was added in an amount of 10 μL into each well of a 384-well plate, and then, 4×GS1 solution and 4×GR solution were added in an amount of 5 μL into each well, respectively.
2) The plate was incubated in a dark place at room temperature for 2 to 4 hours.
3) By using a multimode plate reader, Analyst™ HT (manufactured by LJL Biosystems), fluorescence polarization of each well was measured. As the blank, a well containing GR screening buffer in place of the test compound and 4×GS1 solution was used.
4) The same procedure as that in the above 1) to 3) was carried out except that GR screening buffer was used in place of the test compound solution, and the obtained result was taken as the negative control.
5) The same procedure as that in the above 1) to 3) was carried out except that 2 mM dexamethasone was used in place of the test compound solution, and the obtained result was taken as the positive control.
A GR binding ratio (%) was calculated from the following equation. GR binding ratio(%)=100×[1−(fluorescence polarization of test compound solution−fluorescence polarization of positive control solution)/(fluorescence polarization of negative control solution fluorescence polarization of positive control solution)] (Test Results and Discussion)

Row | inhibition at 20 µM (stock) [%] | SMILES
1 | 99 | CCCS(=O)(=O)Oc1ccc(-c2ccc3c(c2COC(=O)c2ccc(C)s2)C(C)=CC(C)(C)N3)c(OC)c1 [Compound 2-2, 6-(2-Methoxy-4-propylsulfonyloxyphenyl)-5-(5-methylthiophen-2-ylcarbonyloxymethyl)-2,2,4-trimethyl-1,2-dihydroquinoline]
2 | 91 | COC(=O)Oc1ccc(-c2ccc3c(c2COC(=O)c2ccc(C)s2)C(C)=CC(C)(C)N3)c(OC)c1 [Compound 3-1, 6-(2-Methoxy-4-methoxycarbonyloxyphenyl)-5-(5-methylthiophen-2-ylcarbonyloxymethyl)-2,2,4-trimethyl-1,2-dihydroquinoline]
3 | 97 | COc1cc(OS(=O)(=O)CC(C)C)ccc1-c1ccc2c(c1COC(=O)c1ccc(C)s1)C(C)=CC(C)(C)N2 [Compound 2-3]
4 | 100 | COc1cc(OS(C)(=O)=O)ccc1-c1ccc2c(c1COC(=O)c1ccc(C)s1)C(C)=CC(C)(C)N2 [Compound 2-6, 6-(2-Methoxy-4-methylsulfonyloxyphenyl)-5-(5-methylthiophen-2-ylcarbonyloxymethyl)-2,2,4-trimethyl-1,2-dihydroquinoline]
5 | 94 | COc1cc(OC(=O)N2CCOCC2)ccc1-c1ccc2c(c1COC(=O)c1ccc(C)s1)C(C)=CC(C)(C)N2 [Compound 4-3, 6-[2-Methoxy-4-(morpholin-4-ylcarbonyloxy)phenyl]-5-(5-methylthiophen-2-ylcarbonyloxymethyl)-2,2,4-trimethyl-1,2-dihydroquinoline]
6 | 100 | COc1cc(OS(=O)(=O)C2CC2)ccc1-c1ccc2c(c1COC(=O)c1ccc(C)s1)C(C)=CC(C)(C)N2 [Compound 2-9, 6-(4-Cyclopropylsulfonyloxy-2-methoxyphenyl)-5-(5-methylthiophen-2-ylcarbonyloxymethyl)-2,2,4-trimethyl-1,2-dihydroquinoline]

The next lines start with the molecule.

Row | SMILES | inhibition at 20 µM (stock) [%]
7 | COc1cc(OC(=O)c2ccccc2C)ccc1-c1ccc2c(c1COC(=O)c1ccc(C)s1)C(C)=CC(C)(C)N2 [Compound 1-19, 6-[2-Methoxy-4-(2-methylbenzoyloxy)phenyl]-5-(5-methylthiophen-2-ylcarbonyloxymethyl)-2,2,4-trimethyl-1,2-dihydroquinoline] | 89
8 | COc1cc(OC(=O)c2cscn2)ccc1-c1ccc2c(c1COC(=O)c1ccc(C)s1)C(C)=CC(C)(C)N2 [Compound 1-32, 6-[2-Methoxy-4-(thiazol-4-ylcarbonyloxy)phenyl]-5-(5-methylthiophen-2-ylcarbonyloxymethyl)-2,2,4-trimethyl-1,2-dihydroquinoline] | 99
9 | COc1cc(OC(=O)c2ccncc2)ccc1-c1ccc2c(c1COC(=O)c1ccc(C)s1)C(C)=CC(C)(C)N2 [Compound 1-33, 6-[2-Methoxy-4-(pyridin-4-ylcarbonyloxy)phenyl]-5-(5-methylthiophen-2-ylcarbonyloxymethyl)-2,2,4-trimethyl-1,2-dihydroquinoline] | 96
10 | COc1cc(OC(=O)c2ccoc2)ccc1-c1ccc2c(c1COC(=O)c1ccc(C)s1)C(C)=CC(C)(C)N2 [Compound 1-25, 6-[4-(Furan-3-ylcarbonyloxy)-2-methoxyphenyl]-5-(5-methylthiophen-2-ylcarbonyloxymethyl)-2,2,4-trimethyl-1,2-dihydroquinoline] | 94
11 | COc1cc(OC(=O)c2cccnc2C)ccc1-c1ccc2c(c1COC(=O)c1ccc(C)s1)C(C)=CC(C)(C)N2 [Compound 1-30, 6-[2-Methoxy-4-(2-methylpyridin-3-ylcarbonyloxy)phenyl]-5-(5-methylthiophen-2-ylcarbonyloxymethyl)-2,2,4-trimethyl-1,2-dihydroquinoline] | 96
12 | COc1ccccc1C(=O)Oc1ccc(-c2ccc3c(c2COC(=O)c2ccc(C)s2)C(C)=CC(C)(C)N3)c(OC)c1 [Compound 1-12, 6-[2-Methoxy-4-(2-methoxybenzoyloxy)phenyl]-5-(5-methylthiophen-2-ylcarbonyloxymethyl)-2,2,4-trimethyl-1,2-dihydroquinoline] | 93
13 | COc1cc(OC(=O)c2occc2C)ccc1-c1ccc2c(c1COC(=O)c1ccc(C)s1)C(C)=CC(C)(C)N2 [Compound 1-50, 6-[2-Methoxy-4-(3-methylfuran-2-ylcarbonyloxy)phenyl]-5-(5-methylthiophen-2-ylcarbonyloxymethyl)-2,2,4-trimethyl-1,2-dihydroquinoline] | 90
14 | COc1cc(OC(=O)c2ccco2)ccc1-c1ccc2c(c1COC(=O)c1ccc(C)cc1)C(C)=CC(C)(C)N2 [Compound 1-10, 6-[4-(Furan-2-ylcarbonyloxy)-2-methoxyphenyl]-5-(4-methylbenzoyloxymethyl)-2,2,4-trimethyl-1,2-dihydroquinoline] | 100
15 | COC(=O)c1cccc(C(=O)Oc2ccc(-c3ccc4c(c3COC(=O)c3ccc(C)s3)C(C)=CC(C)(C)N4)c(OC)c2)c1 [Compound 1-26, 6-[2-Methoxy-4-(3-methoxycarbonylbenzoyloxy)phenyl]-5-(5-methylthiophen-2-ylcarbonyloxymethyl)-2,2,4-trimethyl-1,2-dihydroquinoline] | 94
16 | COc1cc(OC(=O)c2ccccc2OC(C)=O)ccc1-c1ccc2c(c1COC(=O)c1ccc(C)s1)C(C)=CC(C)(C)N2 [Compound 1-44, 6-[4-(2-Acetoxybenzoyloxy)-2-methoxyphenyl]-5-(5-methylthiophen-2-ylcarbonyloxymethyl)-2,2,4-trimethyl-1,2-dihydroquinoline] | 96
17 | COc1cc(OC(=O)c2cccc(C)c2)ccc1-c1ccc2c(c1COC(=O)c1ccc(C)s1)C(C)=CC(C)(C)N2 [Compound 1-46, 6-[2-Methoxy-4-(3-methylbenzoyloxy)phenyl]-5-(5-methylthiophen-2-ylcarbonyloxymethyl)-2,2,4-trimethyl-1,2-dihydroquinoline] | 99
18 | COc1cc(OC(=O)c2ccco2)ccc1-c1ccc2c(c1COC(=O)c1ccc(Br)s1)C(C)=CC(C)(C)N2 [Compound 1-39, 5-(5-Bromothiophen-2-ylcarbonyloxymethyl)-6-[4-(furan-2-ylcarbonyloxy)-2-methoxyphenyl]-2,2,4-trimethyl-1,2-dihydroquinoline] | 100
19 | COc1cc(OC(=O)c2ccccc2)ccc1-c1ccc2c(c1COC(=O)c1ccc(C)s1)C(C)=CC(C)(C)N2 [Compound 1-18, 6-(4-Benzoyloxy-2-methoxyphenyl)-5-(5-methylthiophen-2-ylcarbonyloxymethyl)-2,2,4-trimethyl-1,2-dihydroquinoline] | 91
20 | COc1ccc(C(=O)OCc2c(-c3ccc(OC(=O)c4ccccc4Cl)cc3OC)ccc3c2C(C)=CC(C)(C)N3)cc1 [Compound 1-35, 6-[4-(2-Chlorobenzoyloxy)-2-methoxyphenyl]-5-(4-methoxybenzoyloxymethyl)-2,2,4-trimethyl-1,2-dihydroquinoline] | 100
21 | COc1cc(OC(=O)c2ccc(Cl)cc2)ccc1-c1ccc2c(c1COC(=O)c1ccc(C)s1)C(C)=CC(C)(C)N2 [Compound 1-17, 6-[4-(4-Chlorobenzoyloxy)-2-methoxyphenyl]-5-(5-methylthiophen-2-ylcarbonyloxymethyl)-2,2,4-trimethyl-1,2-dihydroquinoline] | 84
22 | COc1cc(OC(=O)c2ccccc2Cl)ccc1-c1ccc2c(c1COC(=O)c1ccc(C)cc1)C(C)=CC(C)(C)N2 [Compound 1-6, 6-[4-(2-Chlorobenzoyloxy)-2-methoxyphenyl]-5-(4-methylbenzoyloxymethyl)-2,2,4-trimethyl-1,2-dihydroquinoline] | 100
